From patent US8772253B2, “Aureolic acid derivatives, the method for preparation thereof and the uses” (Entrechem, S.L., priority 2009, dated 2014) come the findings set out here.

Common to all, as to assay type: cell-based
In assay [1] the test system is H116 (colon adenocarcinoma). Put plainly: MTT cell proliferation (cytotoxicity) assay, H116. Particulars: read-out: IC50 or concentration required to achieve 50% growth inhibition compared to untreated cells, H116 (colon). The method, then: (§1) MTM and CRM derivatives were assayed against a collection of tumor cell lines. Tumor cell lines were obtained from The American Type and Culture Collection (ATCC), and the lines were the following; A549 (human lung carcinoma); H116 (colon adenocarcinoma); PSN1 (pancreatic adenocarcinoma) and T98G (human glyoblastoma). Cells were cultured in medium RPM1 containing 2 mM glutamine, 50 IU/ml penicillin and 50 μg/ml streptomycin. Culture medium for cell lines A549 and H116 was supplemeted with 5% FBS and culture medium for cell lines PSN1 and T98G was supplemented with 10% FBS.
(§2) The evaluation of compound cytotoxicity was carried out by determining cell viability using an assay based on metabolic reduction of 3-(4,5-dimethyl-2-thiazolyl)-2,5-diphenyltetrazolium bromide (MTT; Sigma Chemical Co. St. Louis, Mo.). This reduction reaction is carried out by mitochondrion succinate dehydrogenase of viable cells and produce formazan, a chromogenic compound that can be quantified by spectrophotometry.
(§3) The assay was carried out following the procedure described by Mosmann (J. Immunol. Methods 1983, 65, 55). Tumor cells were incubated in 96 well microtitre plates containing 200 μl of complete medium (with 4×10^3 cells/well for A549 and 6×10^3 cells/well for H116, PSN1 and T98G). Serial dilutions in DMSO of the test compounds (10 μg/ml, 5 μg/ml, 1 μg/ml, 0.5 μg/ml, 0.1 μg/ml, 0.05 μg/ml, 0.01 μg/ml, y 0.005 μg/ml) were added and after 2 days incubation (at 37° C., 5% CO2 and high relative humidity), 50 μl of MTT (1 mg/ml in PBS) was added to each well. The plates were incubated at 37° C. for 2 hours and the reduction product (formazan) was resuspended in 100 μl of DMSO and quantified at 490 nm with a spectrophotometer.

The test system of assay [2] is PSN1 (pancreatic adenocarcinoma). Put plainly: MTT cell proliferation (cytotoxicity) assay, PSN1. To be noted: read-out: IC50 or concentration required to achieve 50% growth inhibition compared to untreated cells, PSN1 (pancreatic adenocarcinoma). The method, then:
as §1, §2, §3

Assay [3] has as its system A549 (human lung carcinoma). The assay can be described thus: MTT cell proliferation (cytotoxicity) assay, A549. Particulars: read-out: IC50 or concentration required to achieve 50% growth inhibition compared to untreated cells, A549 (lung). How it is done:
as §1, §2, §3

The test system of assay [4] is T98G (human glyoblastoma). Put plainly: MTT cell proliferation (cytotoxicity) assay, T98G. To be noted: read-out: IC50 or concentration required to achieve 50% growth inhibition compared to untreated cells, T98G (glyoblastoma). The method, then:
as §1, §2, §3

The mark [5] stands for this setting: 48 h, H116 cells, MTT, 2 days incubation, triplicate.
Where [6] appears, read: Homo sapiens, 48 h, PSN1 cells, MTT, 2 days incubation, triplicate, read-out: IC50 or concentration required to achieve 50% growth inhibition compared to untreated cells, PSN1 (prostate).
Setting [7] is: Homo sapiens, 48 h, A549 cells, MTT, 2 days incubation, triplicate.
The mark [8] stands for this setting: Homo sapiens, 48 h, T98G cells, MTT, 2 days incubation, triplicate.
The mark [9] stands for this setting: H116 cells, MTT, 2 days incubation, triplicate.
[10] abbreviates: PSN1 cells, MTT, 2 days incubation, triplicate, read-out: IC50 or concentration required to achieve 50% growth inhibition compared to untreated cells, PSN1 (prostate).
Where [11] appears, read: A549 cells, MTT, 2 days incubation, triplicate.
Setting [12] is: T98G cells, MTT, 2 days incubation, triplicate.

pIC50: −log10 of the molar value. Read-outs that look alike come from different tables or passages of the source.

With `CO[C@H](C(=O)[C@@H](O)[C@@H](C)O)[C@@H]1Cc2cc3cc(O[C@H]4C[C@@H](O[C@H]5C[C@@H](OC(=O)CCC(=O)O)[C@H](O)C(C)O5)[C@H](O)C(C)O4)c(C)c(O)c3c(O)c2C(=O)[C@H]1O[C@H]1C[C@@H](O[C@H]2C[C@@H](O[C@H]3C[C@](C)(O)[C@H](O)C(C)O3)[C@@H](O)C(C)O2)[C@H](O)C(C)O1` (some centres unmarked) [(LV)], the pIC50 in assay [1] (setting [5]) is 5.38; in assay [2] (setting [6]), 6.37; in assay [3] (setting [7]), 5.38; in assay [4] (setting [8]), 5.38.
On to `CO[C@@H]([C@@H]1Cc2cc3cc(O[C@H]4C[C@@H](O[C@H]5C[C@@H](O)[C@H](O)[C@@H](C)O5)[C@H](O)[C@@H](C)O4)c(C)c(O)c3c(O)c2C(=O)[C@H]1O[C@H]1C[C@@H](O[C@H]2C[C@@H](O[C@H]3C[C@](C)(O)[C@H](O)[C@@H](C)O3)[C@@H](O)[C@@H](C)O2)[C@H](O)[C@@H](C)O1)[C@@H](O)C(C)=O` [MTM-SK, reference compound], for which the pIC50 in assay [1] (setting [9]) is 8.03; in assay [2] (setting [10]), 8.03; in assay [3] (setting [11]), 8.03; in assay [4] (setting [12]) it was 7.33.
With `CO[C@H](C(=O)C(C)=O)[C@@H]1Cc2cc3cc(O[C@H]4C[C@@H](O[C@H]5C[C@@H](O)[C@H](O)C(C)O5)[C@H](O)C(C)O4)c(C)c(O)c3c(O)c2C(=O)[C@H]1O[C@H]1C[C@@H](O[C@H]2C[C@@H](O[C@H]3C[C@@H](O)[C@H](O)C(C)O3)[C@@H](O)C(C)O2)[C@H](O)C(C)O1` (some centres unmarked) [(IX)], the pIC50 in assay [1] (H116, 48 h) was 8.30; in assay [2] (Homo sapiens, PSN1, 48 h), 8.30; in assay [3] (Homo sapiens, A549, 48 h) it was 8.30; in assay [4] (Homo sapiens, T98G, 48 h), 8.00.
Regarding `CO[C@@H]([C@@H]1Cc2cc3cc(O[C@H]4C[C@@H](O[C@H]5C[C@@H](OC(C)=O)[C@H](O)C(C)O5)[C@H](O)C(C)O4)c(C)c(O)c3c(O)c2C(=O)[C@H]1O[C@H]1C[C@@H](O[C@H]2C[C@@H](O[C@H]3C[C@](C)(O)[C@H](O)C(C)O3)[C@@H](O)C(C)O2)[C@H](O)C(C)O1)[C@@H](O)C(C)=O` (some centres unmarked) [(LXI)], the pIC50 is 8.05 in assay [1] (setting [5]), 8.19 in assay [2] (setting [6]), 7.35 in assay [3] (setting [7]) and 7.35 in assay [4] (setting [8]).
In the case of `CO[C@H](C(=O)C(C)=O)[C@@H]1Cc2cc3cc(O[C@H]4C[C@@H](O[C@H]5C[C@@H](O)[C@H](O)[C@@H](C)O5)[C@H](O)[C@@H](C)O4)c(C)c(O)c3c(O)c2C(=O)[C@H]1O[C@H]1C[C@@H](O[C@H]2C[C@@H](O[C@H]3C[C@](C)(O)[C@H](O)[C@@H](C)O3)[C@@H](O)[C@@H](C)O2)[C@H](O)[C@@H](C)O1` [MTM-SDK, reference compound], the pIC50 was 8.03 in assay [1] (setting [9]), 8.03 in assay [2] (setting [10]), 8.03 in assay [3] (setting [11]) and 7.32 in assay [4] (setting [12]).
On to “3D-demycarosyl-3D-β-D-digitoxosyl-MTM [reference compound]”, for which the pIC50 in assay [1] (setting [9]) was 7.33; in assay [2] (setting [10]) it was 7.33; in assay [3] (setting [11]), 7.33; in assay [4] (setting [12]), 7.16.
For `CO[C@H](C(=O)C(C)=O)[C@@H]1Cc2cc3cc(O[C@H]4C[C@@H](O[C@H]5C[C@@H](O)[C@H](O)C(C)O5)[C@H](O)C(C)O4)c(C)c(O)c3c(O)c2C(=O)[C@H]1O[C@H]1C[C@@H](O[C@H]2C[C@@H](O)[C@@H](O)C(C)O2)[C@H](O)C(C)O1` (some centres unmarked) [(VIII)], the pIC50 in assay [1] (setting [5]) is 7.30; in assay [2] (setting [6]), 7.00; in assay [3] (setting [7]), 7.30; in assay [4] (setting [8]), 6.52.
Take `CO[C@@H]([C@@H]1Cc2cc3cc(O[C@H]4C[C@@H](O[C@H]5C[C@@H](O)[C@H](OC(C)=O)C(C)O5)[C@H](O)C(C)O4)c(C)c(O)c3c(O)c2C(=O)[C@H]1O[C@H]1C[C@@H](O[C@H]2C[C@@H](O[C@H]3C[C@](C)(O)[C@H](O)C(C)O3)[C@@H](O)C(C)O2)[C@H](O)C(C)O1)[C@@H](O)C(C)=O` (some centres unmarked) [(LXIX)]: the pIC50 was 8.05 in assay [1] (setting [5]), 7.35 in assay [2] (setting [6]), 8.05 in assay [3] (setting [7]) and 8.40 in assay [4] (setting [8]).
Take `CCCC(=O)O[C@@H]1C[C@H](O[C@@H]2C[C@H](Oc3cc4cc5c(c(O)c4c(O)c3C)C(=O)[C@@H](O[C@H]3C[C@@H](O[C@H]4C[C@@H](O[C@H]6C[C@](C)(O)[C@H](O)C(C)O6)[C@@H](O)C(C)O4)[C@H](O)C(C)O3)[C@H]([C@H](OC)C(=O)[C@@H](O)[C@@H](C)O)C5)OC(C)[C@H]2O)OC(C)[C@H]1O` (some centres unmarked) [(XLVI)]: the pIC50 is 7.37 in assay [1] (setting [5]), 7.37 in assay [2] (setting [6]), 6.36 in assay [3] (setting [7]) and 7.37 in assay [4] (setting [8]).
Regarding `CO[C@@H]([C@@H]1Cc2cc3cc(O[C@H]4C[C@@H](O[C@H]5C[C@@H](O)[C@H](O)C(C)O5)[C@H](O)C(C)O4)c(C)c(O)c3c(O)c2C(=O)[C@H]1O[C@H]1C[C@@H](O[C@H]2C[C@@H](O[C@H]3C[C@](C)(O)[C@H](O)C(C)O3)[C@@H](O)C(C)O2)[C@H](O)C(C)O1)[C@@H](O)C(C)=O` (some centres unmarked) [(XIV)], the pIC50 in assay [1] (setting [5]) was 8.00; in assay [2] (setting [6]) it was 7.30; in assay [3] (setting [7]), 7.30; in assay [4] (setting [8]), 6.12.
Turning to `CO[C@H](C(=O)[C@@H](O)[C@@H](C)OC(=O)CCC(=O)O)[C@@H]1Cc2cc3cc(O[C@H]4C[C@@H](O[C@H]5C[C@@H](O)[C@H](O)C(C)O5)[C@H](O)C(C)O4)c(C)c(O)c3c(O)c2C(=O)[C@H]1O[C@H]1C[C@@H](O[C@H]2C[C@@H](O[C@H]3C[C@](C)(O)[C@H](O)C(C)O3)[C@@H](O)C(C)O2)[C@H](O)C(C)O1` (some centres unmarked) [(LII)], the pIC50 in assay [1] (setting [5]) is 6.38; in assay [2] (setting [6]), 6.38; in assay [3] (setting [7]), 6.38; in assay [4] (setting [8]) it was 6.07.
For the compound `CCCC(=O)O[C@H](C)[C@H](O)C(=O)[C@@H](OC)[C@@H]1Cc2cc3cc(O[C@H]4C[C@@H](O[C@H]5C[C@@H](O)[C@H](O)C(C)O5)[C@H](O)C(C)O4)c(C)c(O)c3c(O)c2C(=O)[C@H]1O[C@H]1C[C@@H](O[C@H]2C[C@@H](O[C@H]3C[C@](C)(O)[C@H](O)C(C)O3)[C@@H](O)C(C)O2)[C@H](O)C(C)O1` (some centres unmarked) [(XXXI)], the pIC50 in assay [1] (setting [5]), in assay [2] (setting [6]), in assay [3] (setting [7]) and in assay [4] (setting [8]) was 7.37 throughout.
As for `CO[C@H](C(=O)[C@@H](O)[C@@H](C)O)[C@@H]1Cc2cc3cc(O[C@H]4C[C@@H](O[C@H]5C[C@@H](O)[C@H](OC(=O)CCC(=O)O)C(C)O5)[C@H](O)C(C)O4)c(C)c(O)c3c(O)c2C(=O)[C@H]1O[C@H]1C[C@@H](O[C@H]2C[C@@H](O[C@H]3C[C@](C)(O)[C@H](O)C(C)O3)[C@@H](O)C(C)O2)[C@H](O)C(C)O1` (some centres unmarked) [(LIII)], the pIC50 in assay [1] (setting [5]) is 6.07; in assay [2] (setting [6]), 6.20; in assay [3] (setting [7]) it was 5.38; in assay [4] (setting [8]), 6.07.
As to `CO[C@@H]([C@@H]1Cc2cc3cc(O[C@H]4C[C@@H](O[C@H]5C[C@@H](O)[C@H](O)C(C)O5)[C@H](O)C(C)O4)c(C)c(O)c3c(O)c2C(=O)[C@H]1O[C@H]1C[C@@H](O[C@H]2C[C@@H](O[C@H]3C[C@@H](O)[C@H](O)C(C)O3)[C@@H](O)C(C)O2)[C@H](O)C(C)O1)[C@@H](O)C(C)=O` (some centres unmarked) [(VII)], the pIC50 is 8.00 in assay [1] (setting [5]), 7.00 in assay [2] (setting [6]), 7.30 in assay [3] (setting [7]) and 6.52 in assay [4] (setting [8]).
